In BindingDB's records for doi:10.1016/j.bmc.2010.06.094 (Shahid Beheshti University of Medical Sciences, 2010) one finds IC50 data, which are given here for seven compounds.

Experiment [1] addresses Prostaglandin G/H synthase 2 / COX-2 (Ovis aries) (UniProt P79208). The experiment in a line: Inhibition of sheep COX2.
In experiment [2] the target is Prostaglandin G/H synthase 1 / COX-1 (Ovis aries) (UniProt P05979). The experiment in a line: Inhibition of sheep COX1.

With `CC(=O)Nc1ccc(-c2cc(C(=O)O)c3cc(C(=O)c4ccccc4)ccc3n2)cc1` [2-(4-acetamido)phenyl)-6-benzoyl-quinoline-4-carboxylic acid], the IC50 came to 0.085 µM in experiment [1] and 21.8 µM in experiment [2].
The corresponding values for `[N-]=[N+]=Nc1ccc(-c2cc(C(=O)O)c3cc(C(=O)c4ccccc4)ccc3n2)cc1` [2-(4-azido)phenyl)-6-benzoyl-quinoline-4-carboxylic acid] are 0.077 µM and greater than 100 µM.
For the compound `CC(=O)Nc1ccc(-c2cc(C(=O)O)c3cccc(C(=O)c4ccccc4)c3n2)cc1` [2-(4-acetamido)phenyl)-8-benzoyl-quinoline-4-carboxylic acid], the values for the IC50 in experiment [1] and in experiment [2] were 0.08 µM and 9.2 µM, respectively.
On to `CS(=O)(=O)c1ccc(-c2cc(C(=O)O)c3cc(C(=O)c4ccccc4)ccc3n2)cc1` [6-benzoyl-2-(4-(methylsulfonyl)phenyl)quinoline-4-carboxylic acid], for which the IC50 in experiment [1] is 0.077 µM; in experiment [2] it was 24.4 µM.
As for `CS(=O)(=O)c1ccc(-c2cc(C(=O)O)c3cccc(C(=O)c4ccccc4)c3n2)cc1` [8-benzoyl-2-(4-(methylsulfonyl)phenyl)quinoline-4-carboxylic acid], the IC50 amounted to 0.069 µM in experiment [1] and 15.9 µM in experiment [2].
Regarding `[N-]=[N+]=Nc1ccc(-c2cc(C(=O)O)c3cccc(C(=O)c4ccccc4)c3n2)cc1` [2-(4-azido)phenyl)-8-benzoyl-quinoline-4-carboxylic acid], the IC50 in experiment [1] came to 0.057 µM; in experiment [2], 65.5 µM.
Regarding `CS(=O)(=O)c1ccc(-c2cc(C(=O)O)c3ccccc3n2)cc1` [2-(4-(methylsulfonyl)phenyl)-quinoline-4-carboxylic acid], the IC50 in experiment [2] was 13.4 µM.

The IC50 is the concentration needed to halve the response being measured. A lower IC50 goes with greater potency in that assay.
